Measured values as given in patent US9765035B2 (priority 2013, dated 2017).
Read-outs that look alike come from different tables or passages of the source.

Experiments:
human PRMT1 = biological target: T1, human PRMT1 (Homo sapiens, UniProt Q99873); assay: biochemical
T1 construct: GST-tagged PRMT1; made in house; host or cells: High Five insect cells (baculovirus)
Text: General Materials. S-adenosylmethionine (SAM), S-adenosylhomocysteine (SAH), bicine, Tween20, dimethylsulfoxide (DMSO), bovine skin gelatin (BSG), and Tris(2-carboxyethyl)phosphine hydrochloride solution (TCEP) were purchased from Sigma-Aldrich at the highest level of purity possible. ^3H-SAM was purchase from American Radiolabeled Chemicals with a specific activity of 80 Ci/mmol. 384-well streptavidin Flashplates were purchased from PerkinElmer.
Substrates. Peptide representative of human histone H4 residues 36-50 was synthesized with an N-terminal linker-affinity tag motif and a C-terminal amide cap by 21st Century Biochemicals. The peptide was purified by high-performance liquid chromatography (HPLC) to greater than 95% purity and confirmed by liquid chromatography mass spectrometry (LC-MS). The sequence was Biot-Ahx-[…]-amide (SEQ ID NO.:1).
Molecular Biology: Full-length human PRMT1 isoform 1 (NM_001536.5) transcript clone was amplified from an HEK 293 cDNA library, incorporating flanking 5′ sequence encoding a FLAG tag ([…]) (SEQ ID NO.:2) fused directly to Met 1 of PRMT1. The amplified gene was subcloned into pFastBacI (Life Technologies) modified to encode an N-terminal GST tag and a TEV cleavage sequence
Protein Expression. Recombinant baculovirus were generated according to Bac-to-Bac kit instructions (Life Technologies). Protein over-expression was accomplished by infecting exponentially growing High Five insect cell culture at 1.5×10^6 cell/ml with 1:100 ratio of virus. Infections were carried out at 27° C. for 48 hours, harvested by centrifugation, and stored at −80° C. for purification.
Protein Purification. […] GST-tagged PRMT1 was eluted with 50 mM Tris, 2 mM glutathione, pH 7.8, dialysed in buffer A and concentrated to 1 mg/mL. The purity of recovered protein was 73%. Reference: Wasilko, D. J. and S. E. Lee: “TIPS: titerless infected-cells preservation and scale-up” Bioprocess J., 5 (2006), pp. 29-32.
General Procedure for PRMT1 Enzyme Assays on Peptide Substrates. The assays were all performed in a buffer consisting of 20 mM Bicine (pH=7.6), 1 mM TCEP, 0.005% BSG, and 0.002% Tween 20, prepared on the day of use. Compounds in 100% DMSO (1 ul) were spotted into a polypropylene 384-well V-bottom plates (Greiner) using a Platemate Plus outfitted with a 384-channel head (Thermo Scientific). DMSO (1 ul) was added to Columns 11, 12, 23, 24, rows A-H for the maximum signal control and 1 ul of SAH, a known product and inhibitor of PRMT1, was added to columns 11, 12, 23, 24, rows I-P for the minimum signal control. A cocktail (40 ul) containing the PRMT1 enzyme was added by Multidrop Combi (Thermo-Fisher). The compounds were allowed to incubate with PRMT1 for 30 min at room temperature, then a cocktail (10 ul) containing SAM and peptide was added to initiate the reaction (final volume=51 ul). The final concentrations of the components were as follows: PRMT1 was 0.5 nM, ^3H-SAM was 200 nM, non-radiolabeled SAM was 1.5 uM, peptide was 20 nM, SAH in the minimum signal control wells was 1 mM, and the DMSO concentration was 2%. The assays were stopped by the addition of non-radiolabeled SAM (10 ul) to a final concentration of 300 uM, which dilutes the ^3H-SAM to a level where its incorporation into the peptide substrate is no longer detectable. 50 ul of the reaction in the 384-well polypropylene plate was then transferred to a 384-well Flashplate and the biotinylated peptides were allowed to bind to the streptavidin surface for at least 1 hour before being washed once with 0.1% Tween20 in a Biotek EL×405 plate washer. The plates were then read in a PerkinElmer TopCount plate reader to measure the quantity of ^3H-labeled peptide bound to the Flashplate surface, measured as disintegrations per minute (dpm) or alternatively, referred to as counts per minute (cpm).
Where dpm=disintegrations per minute, cmpd=signal in assay well, and min and max are the respective minimum and maximum signal controls. […]

[1] = system: RKO cells, mono-methyl arginine; assay: RKO Methylation Assay (In Cell Western for mono-methyl arginine); type: cell-based; settings: Homo sapiens
Text: RKO adherent cells were purchased from ATCC (American Type Culture Collection), Manassas, Va., USA. DMEM/Glutamax medium, penicillin-streptomycin, heat inactivated fetal bovine serum, 0.05% trypsin and D-PBS were purchased from Life Technologies, Grand Island, N.Y., USA. Odyssey blocking buffer, 800CW goat anti-rabbit IgG (H+L) antibody, and Licor Odyssey infrared scanner were purchased from Licor Biosciences, Lincoln, Nebr., USA. Mono-methyl arginine antibody was purchased from Cell Signaling Technology, Danvers, Mass., USA. Methanol was purchased from VWR, Franklin, Mass., USA. 10% Tween 20 was purchased from KPL, Inc., Gaithersburg, Md., USA. DRAQ5 was purchased from Biostatus Limited, Leicestershire, UK.
RKO adherent cells were maintained in growth medium (DMEM/Glutamax medium supplemented with 10% v/v heat inactivated fetal bovine serum and 100 units/mL penicillin-streptomycin) and cultured at 37° C. under 5% CO2.
Cell Treatment, in Cell Western (ICW) for Detection of Mono-Methyl Arginine and DNA Content. […] Compound (100 nL) from a 96-well source plate was added directly to 384 well cell plate. Plates were incubated at 37° C., 5% CO2 for 72 hours. After three days of incubation, plates were brought to room temperature outside of the incubator for ten minutes and blotted on paper towels to remove cell media. 50 μL of ice cold 100% methanol was added directly to each well and incubated for 30 min at room temperature. After 30 min, plates were transferred to a Biotek EL406 plate washer and washed 2 times with 100 μL per well of wash buffer (1×PBS). Next 60 μL per well of Odyssey blocking buffer (Odyssey Buffer with 0.1% Tween 20 (v/v)) were added to each plate and incubated 1 hour at room temperature. Blocking buffer was removed and 20 μL per well of primary antibody was added (mono-methyl arginine diluted 1:200 in Odyssey buffer with 0.1% Tween 20 (v/v)) and plates were incubated overnight (16 hours) at 4° C. Plates were washed 5 times with 100 μL per well of wash buffer. […] The plates were washed 5 times with 100 μL per well wash buffer then 2 times with 100 μL per well of water. Plates were allowed to dry at room temperature then imaged on the Licor Odyssey machine which measures integrated intensity at 700 nm and 800 nm wavelengths. Both 700 and 800 channels were scanned.
Calculations: First, the ratio for each well was determined by:
Each plate included fourteen control wells of DMSO only treatment (minimum activation) as well as fourteen control wells for maximum activation treated with 20 μM of a reference compound. The average of the ratio values for each control type was calculated and used to determine the percent activation for each test well in the plate. Reference compound was serially diluted three-fold in DMSO for a total of nine test concentrations, beginning at 20 μM. Percent activation was determined and EC30 curves were generated using triplicate wells per concentration of compound.

[2] = biochemical evaluation, peptide substrate, read-out: PRMT1 IC50
[3] = single experiment or average of multiple experiments, read-out: PRMT1 biochemical evaluation (numerical)
[4] = In Cell Western EC30, RKO cells, 72 hours, single experiment or average of multiple experiments, read-out: RGG ICW
[5] = In Cell Western, RKO cells, 72 hours, read-out: RGG ICW EC30

T1 sequence (Q99873 other isoform, or with tags, fused parts or gaps): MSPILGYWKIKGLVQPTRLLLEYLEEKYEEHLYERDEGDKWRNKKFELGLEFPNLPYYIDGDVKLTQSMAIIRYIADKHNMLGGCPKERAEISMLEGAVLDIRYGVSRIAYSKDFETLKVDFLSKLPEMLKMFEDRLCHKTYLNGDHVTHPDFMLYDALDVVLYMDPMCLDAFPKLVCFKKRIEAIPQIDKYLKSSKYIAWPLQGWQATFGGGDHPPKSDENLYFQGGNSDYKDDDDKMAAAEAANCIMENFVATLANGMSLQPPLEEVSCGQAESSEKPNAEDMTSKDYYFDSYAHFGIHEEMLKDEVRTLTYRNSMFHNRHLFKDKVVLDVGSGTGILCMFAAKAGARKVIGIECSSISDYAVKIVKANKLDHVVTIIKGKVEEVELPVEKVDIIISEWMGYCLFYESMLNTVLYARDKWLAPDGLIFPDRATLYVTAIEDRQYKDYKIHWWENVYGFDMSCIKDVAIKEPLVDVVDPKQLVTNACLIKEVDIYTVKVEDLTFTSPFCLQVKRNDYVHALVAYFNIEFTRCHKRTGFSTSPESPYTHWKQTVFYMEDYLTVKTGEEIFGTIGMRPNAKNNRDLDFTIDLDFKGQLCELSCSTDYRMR

Compound | IC50 (human PRMT1; [2]) [µM] | IC50 (human PRMT1; [3]) [µM] | EC30 [1, 4] [µM] | EC30 [1, 5] [µM] | EC30 ([1]; RKO, 72 h, read-out: RGG ICW) [µM] | EC30 ([1]; RKO, 72 h, read-out: RGG ICW EC30) [µM]
CNCCN(C)Cc1n[nH]c2ccc(O)cc12 [Compound 36, 3-((methyl(2-(methylamino)ethyl)amino)methyl)-1H-indazol-5-ol] | 0.101 to 1 | 6.76 | > 20 | > 12 | – | –
CNCCN(C)Cc1n[nH]c2ccc(OCCOC)cc12 [Compound 5, N^1-((5-(2-methoxyethoxy)-1H-indazol-3-yl)methyl)-N^1,N^2-dimethylethane-1,2-diamine] | < 0.1 | 0.0385 | 11.4 | 3.01 to 12 | – | –
CNCCN(C)Cc1nn(C)c2ccc(OCc3ccc(C#N)cc3)cc12 [Compound 32] | 0.101 to 1 | 0.0739 | – | – | 8.9 | 3.01 to 12
CNCCN(C)Cc1n[nH]c2ccc(OCCC(C)C)cc12 [Compound 8] | < 0.1 | 0.00783 | 0.93 | < 3 | – | –
CNCCN(C)Cc1nn(C2CCN(C(C)=O)CC2)c2ccc(OCc3ccc(C#N)cc3)cc12 [Compound 38] | 3.01 to 10 | 0.552 | > 20 | > 12 | – | –
CNCCN(C)Cc1n[nH]c2ccc(OC3CCCC3)cc12 [Compound 11] | < 0.1 | 0.0033 | 0.724 | < 3 | – | –
CNCCN(C)Cc1n[nH]c2ccc(OC(C)Cc3ccccc3)cc12 (stereo not drawn) [Compound 9] | < 0.1 | 0.0108 | 3.43 | 3.01 to 12 | – | –
CNCCN(C)Cc1n[nH]c2ccc(OC)cc12 [Compound 35] | 3.01 to 10 | 0.187 | > 20 | > 12 | – | –
CNCCN(C)Cc1n[nH]c2ccc(OCCc3ccccc3)cc12 [Compound 7] | < 0.1 | 0.0066 | 0.791 | < 3 | – | –
CNCCN(C)Cc1n[nH]c2ccc(OCc3ccc(C#N)cc3)cc12 [Compound 13] | < 0.1 | 0.0869 | 3.81 | 3.01 to 12 | – | –
CNCCN(C)Cc1n[nH]c2ccc(OCc3ccccn3)cc12 [Compound 12] | < 0.1 | 0.0272 | 6.06 | 3.01 to 12 | – | –
CNCCN(C)Cc1n[nH]c2ccc(OCc3ccn(CC(C)C)n3)cc12 [Compound 33] | 0.101 to 1 | 0.0445 | 9.06 | 3.01 to 12 | – | –
